# Source: the supplement of paper PMC8149375
# Columns and labels:
# Conditions in all cases: treatment: drug alone; 5 days
# 769-P [1] = test: GI50, drug alone; higher = less potent
# Protocol: (§1)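 Primary HTS: 8 RCC cell lines treated with 8 doses (up to 10 uM) of each library drug alone for 5 days; viability read by CellTiter-Glo and normalised to DMSO. GI50 was fitted with XLfit (4-parameter), AUC is the area under the dose-response curve, and minimum viability is the lowest fraction of DMSO viability across doses.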
# 786-O [2] = test: GI50, drug alone; higher = less potent
# Protocol: as §1
# A498 [3] = test: GI50, drug alone; higher = less potent
# Protocol: as §1
# ACHN [4] = test: GI50, drug alone; higher = less potent
# Protocol: as §1
# CAKI-1 [5] = test: GI50, drug alone; higher = less potent
# Protocol: as §1
# SN12C [6] = test: GI50, drug alone; higher = less potent
# Protocol: as §1
# TK-10 [7] = test: GI50, drug alone; higher = less potent
# Protocol: as §1
# UO-31 [8] = test: GI50, drug alone; higher = less potent
# Protocol: as §1
# 769-P [9] = test: minimum viability across doses, drug alone, relative to DMSO (fraction); higher = less growth inhibition
# Protocol: as §1
# 786-O [10] = test: as above
# Protocol: as §1
# A498 [11] = test: as above
# Protocol: as §1
# ACHN [12] = test: as above
# Protocol: as §1
# CAKI-1 [13] = test: as above
# Protocol: as §1
# SN12C [14] = test: as above
# Protocol: as §1
# TK-10 [15] = test: as above
# Protocol: as §1
# UO-31 [16] = test: as above
# Protocol: as §1
# 769-P [17] = test: AUC of dose-response viability curve, drug alone (arbitrary (AUC of normalised viability)); higher = less growth inhibition
# Protocol: as §1
# 786-O [18] = test: as above
# Protocol: as §1
# A498 [19] = test: as above
# Protocol: as §1
# ACHN [20] = test: as above
# Protocol: as §1
# CAKI-1 [21] = test: as above
# Protocol: as §1
# SN12C [22] = test: as above
# Protocol: as §1
# TK-10 [23] = test: as above
# Protocol: as §1
# UO-31 [24] = test: as above
# Protocol: as §1
"GI50, drug alone (786-O [2]) [µM]","GI50, drug alone (ACHN [4]) [µM]",SMILES,"GI50, drug alone (769-P [1]) [µM]","GI50, drug alone (A498 [3]) [µM]","GI50, drug alone (CAKI-1 [5]) [µM]","GI50, drug alone (SN12C [6]) [µM]","GI50, drug alone (TK-10 [7]) [µM]","GI50, drug alone (UO-31 [8]) [µM]",minimum viability across doses (769-P [9]),minimum viability across doses (786-O [10]),minimum viability across doses (A498 [11]),minimum viability across doses (ACHN [12]),minimum viability across doses (CAKI-1 [13]),minimum viability across doses (SN12C [14]),minimum viability across doses (TK-10 [15]),minimum viability across doses (UO-31 [16]),AUC of dose-response viability curve (769-P [17]),AUC of dose-response viability curve (786-O [18]),AUC of dose-response viability curve (A498 [19]),AUC of dose-response viability curve (ACHN [20]),AUC of dose-response viability curve (CAKI-1 [21]),AUC of dose-response viability curve (SN12C [22]),AUC of dose-response viability curve (TK-10 [23]),AUC of dose-response viability curve (UO-31 [24])
0.0999,2.94,O=C(NCCCNc1nc(Nc2cccc(NC(=O)N3CCCC3)c2)ncc1I)c1cccs1 [BX-795],5.63,> 10,2.67,7.51,3.93,5.04,0.149,0.00247,0.917,0.217,0.17,0.458,0.218,0.0155,3.03,1.64,4.14,2.83,2.66,2.8,2.59,4.13
> 10,0.609,CNC(=O)CN1CCC(Oc2cc3c(Nc4cccc(Cl)c4F)ncnc3cc2OC)CC1 [AZD8931],1.15,> 10,> 10,> 10,1.21,> 10,0.336,0.474,0.994,0.323,0.576,0.696,0.333,0.785,2.32,2.67,4.39,2.08,2.86,3.06,2.35,3.56
1.54,4.37,CCC[C@H](NC(=O)/C(C#N)=C/c1cccc(Br)n1)c1ccccc1 [WP1130],4.25,5.12,4.52,4.46,4.1,8.04,0.0147,0.00591,0.0682,0.00429,0.0261,0.0172,0.0704,0.0144,3.17,2.24,3.33,3.26,3.18,2.97,2.56,3.72
0.034,0.0173,NC(=O)Nc1cc(-c2cccc(F)c2)sc1C(=O)N[C@H]1CCCNC1 [AZD7762],0.175,0.308,0.156,0.408,0.0685,0.0818,0.0526,0.00636,0.0492,0.0318,0.00629,0.00737,0.0208,0.00565,1.82,1.1,2.53,0.873,1.78,2.07,1.39,2.1
0.186,0.654,Cc1ncc(-c2ccnc(Nc3ccc(S(C)(=O)=O)cc3)n2)n1C(C)C [AZD5438],0.91,1.23,1.64,1.48,0.759,0.258,0.0207,0.00317,0.00858,0.0146,0.131,0.0183,0.142,0.00721,2.6,1.66,2.44,2.39,2.97,2.45,2.49,2.19

# The remaining lines, values behind:
SMILES,"GI50, drug alone (786-O [2]) [µM]","GI50, drug alone (ACHN [4]) [µM]","GI50, drug alone (769-P [1]) [µM]","GI50, drug alone (A498 [3]) [µM]","GI50, drug alone (CAKI-1 [5]) [µM]","GI50, drug alone (SN12C [6]) [µM]","GI50, drug alone (TK-10 [7]) [µM]","GI50, drug alone (UO-31 [8]) [µM]",minimum viability across doses (769-P [9]),minimum viability across doses (786-O [10]),minimum viability across doses (A498 [11]),minimum viability across doses (ACHN [12]),minimum viability across doses (CAKI-1 [13]),minimum viability across doses (SN12C [14]),minimum viability across doses (TK-10 [15]),minimum viability across doses (UO-31 [16]),AUC of dose-response viability curve (769-P [17]),AUC of dose-response viability curve (786-O [18]),AUC of dose-response viability curve (A498 [19]),AUC of dose-response viability curve (ACHN [20]),AUC of dose-response viability curve (CAKI-1 [21]),AUC of dose-response viability curve (SN12C [22]),AUC of dose-response viability curve (TK-10 [23]),AUC of dose-response viability curve (UO-31 [24])
Cc1ccccc1-n1c(Cn2cnc3c(N)ncnc32)nc2cccc(C)c2c1=O,7.98,> 10,> 10,> 10,> 10,> 10,> 10,> 10,0.856,0.434,0.955,0.813,0.717,0.814,0.758,0.821,3.25,2.46,3.88,3.17,3.12,3.12,2.93,3.41
C#Cc1cccc(Nc2ncnc3cc(OCCOC)c(OCCO)cc23)c1.Cl [OSI-420 (Desmethyl Erlotinib)],0.101,0.827,3.59,> 10,3.01,> 10,2.42,> 10,0.36,0.443,0.92,0.101,0.159,0.6,0.416,0.906,2.69,2.49,3.79,2.38,2.79,2.95,2.29,3.38
CCCS(=O)(=O)Nc1ccc(F)c(C(=O)c2c[nH]c3ncc(-c4ccc(Cl)cc4)cc23)c1F [Vemurafenib (PLX4032)],5.39,> 10,> 10,> 10,> 10,> 10,> 10,> 10,0.884,0.271,0.93,0.634,0.76,0.764,0.647,0.7,2.31,2.45,3.73,3.08,3.43,3.05,3.05,3.42
COc1cc2c(N3CCN(C(=O)Nc4ccc(OC(C)C)cc4)CC3)ncnc2cc1OCCCN1CCCCC1 [Tandutinib (MLN518)],> 10,> 10,> 10,> 10,> 10,> 10,> 10,> 10,0.818,0.609,0.96,0.767,0.729,0.74,0.818,1.09,3.32,3.61,3.63,3.5,3.41,3.14,3.23,4.36
CC[C@@H]1C(=O)N(C)c2cnc(Nc3ccc(C(=O)N[C@H]4CC[C@H](N5CCN(CC6CC6)CC5)CC4)cc3OC)nc2N1C(C)C [BI6727 (Volasertib)],0.0123,0.13,0.126,2.03,0.157,0.123,0.293,0.0581,0.0308,0.00304,0.0429,0.0122,0.0881,0.0643,0.0289,0.012,1.66,0.673,2.78,1.87,2.01,1.71,1.93,2.07
COc1ccc(COc2cc3oc(=O)c4cc(C(C)O)ccc4c3cc2OC)cc1 (configuration not stated) [Palomid 529],5.75,> 10,> 10,> 10,> 10,> 10,> 10,> 10,0.854,0.251,1.12,0.893,0.668,0.844,0.633,1.2,3.39,2.56,4.44,3.5,3.57,3.3,2.69,5.25
O=C1NC(=O)/C(=C/c2ccc3nccc(-c4ccncc4)c3c2)S1,0.45,1.09,6.26,4.57,0.412,1.16,2.29,0.498,0.43,0.216,0.341,0.219,0.125,0.26,0.467,0.0334,2.87,2.19,2.97,2.48,2.21,2.4,2.63,2.45
COc1ncc(-c2ccc3nccc(-c4ccnnc4)c3c2)cc1NS(=O)(=O)c1ccc(F)cc1F,0.0296,0.0631,0.0842,0.242,0.0289,0.0766,0.0365,0.092,0.0336,0.00239,0.283,0.0976,0.0314,0.0986,0.0455,0.00994,1.4,1.11,2.32,1.46,1.08,1.49,1.23,1.49
CCOC(=O)C1=C(N)Oc2ccc(Br)cc2[C@H]1[C@H](C#N)C(=O)OCC [HA14-1],> 10,> 10,> 10,> 10,> 10,> 10,> 10,> 10,0.973,0.81,0.885,0.852,0.957,0.867,0.948,0.891,3.84,3.27,3.57,3.35,3.67,3.19,3.55,4.2
CCc1cccc(CC)c1NC(=O)N1Cc2[nH]nc(NC(=O)c3ccc(N4CCN(C)CC4)cc3)c2C1,0.915,3.39,> 10,> 10,2.92,2.15,5.38,> 10,0.87,0.0395,0.679,0.233,0.262,0.238,0.336,0.811,3.41,2.21,3.29,2.85,2.76,2.76,2.92,3.85
COc1cc2nccc(Oc3ccc(NC(=O)C4(C(=O)Nc5ccc(F)cc5)CC4)cc3)c2cc1OC [XL-184 free base (Cabozantinib)],5.69,1.34,> 10,> 10,4.71,5.27,4.14,> 10,0.557,0.222,0.805,0.221,0.116,0.279,0.102,0.675,3.39,3.06,3.95,2.25,3.2,2.92,2.91,3.88
Cn1cnc2c(F)c(Nc3ccc(Br)cc3Cl)c(C(=O)NOCCO)cc21 [AZD6244 (Selumetinib)],1.14,3,3.95,> 10,1.66,> 10,3.05,> 10,0.381,0.371,0.59,0.371,0.23,0.664,0.419,0.728,2.75,2.41,3.06,2.59,2.51,2.88,2.45,4
O=C1CCC(N2C(=O)c3ccccc3C2=O)C(=O)N1 (configuration not stated) [Thalidomide],0.288,> 10,> 10,> 10,> 10,> 10,> 10,> 10,0.949,0.0165,1.05,0.802,0.932,0.88,0.824,1.21,3.56,2,4.19,3.18,3.56,3.37,3.12,4.89
